± gives the standard deviation of the averaged measurements.
Experiments:
BMN-673 = compound: Cn1ncnc1[C@H]1c2n[nH]c(=O)c3cc(F)cc(c23)N[C@@H]1c1ccc(F)cc1 [BMN-673]; experiment: surviving fraction relative to DMSO-only wells; higher = less growth inhibition; settings: exposure time: 5 days
Outline: (§1)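 Viability was determined by CellTiter-Glo luminescence, expressed as surviving fraction normalised to the median of DMSO-only wells. The cells were log-phase tumour cell lines seeded at 250–500 per well in 384-well plates and, after 24 hours, exposed continuously for five days to inhibitors at 0.5, 1, 5, 10, 50, 100, 500 and 1000 nM. Three screens per line were run, keeping only lines with replicate Pearson r >0.7 and median Z' >0.3.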

[1] = compound: COc1ccc(-c2cc3c(C)nc(N)nc3n([C@H]3CC[C@H](OCCO)CC3)c2=O)cn1; experiment: as above; settings: exposure time: 5 days
Outline: as §1

Row | Test System | surviving fraction (BMN-673; 0.5 nM) | surviving fraction (BMN-673; 1 nM) | surviving fraction (BMN-673; 5 nM) | surviving fraction (BMN-673; 10 nM) | surviving fraction (BMN-673; 50 nM) | surviving fraction (BMN-673; 100 nM) | surviving fraction (BMN-673; 500 nM) | surviving fraction (BMN-673; 1000 nM) | surviving fraction ([1]; 0.5 nM) | surviving fraction ([1]; 1 nM) | surviving fraction ([1]; 5 nM) | surviving fraction ([1]; 10 nM) | surviving fraction ([1]; 50 nM) | surviving fraction ([1]; 100 nM) | surviving fraction ([1]; 500 nM) | surviving fraction ([1]; 1000 nM)
1 | MDAMB361 BREAST | 0.804 ± 0.064 | 0.806 ± 0.018 | 0.829 ± 0.013 | 0.82 ± 0.041 | 0.856 ± 0.026 | 0.798 ± 0.07 | 0.782 ± 0.038 | 0.764 ± 0.062 | 0.905 ± 0.065 | 0.953 ± 0.1 | 0.852 ± 0.056 | 0.775 ± 0.096 | 0.78 ± 0.082 | 0.604 ± 0.026 | 0.248 ± 0.02 | 0.205 ± 0.028
2 | MDAMB436 BREAST | 0.734 ± 0.039 | 0.66 ± 0.056 | 0.481 ± 0.023 | 0.434 ± 0.031 | 0.413 ± 0.032 | 0.369 ± 0.026 | 0.349 ± 0.032 | 0.332 ± 0.02 | 0.881 ± 0.036 | 0.856 ± 0.055 | 0.8 ± 0.031 | 0.75 ± 0.051 | 0.582 ± 0.027 | 0.432 ± 0.023 | 0.265 ± 0.016 | 0.2398 ± 0.0015
3 | MDAMB453 BREAST | 1.1 ± 0.11 | 1.03 ± 0.054 | 1.12 ± 0.13 | 0.881 ± 0.057 | 0.724 ± 0.056 | 0.57 ± 0.029 | 0.454 ± 0.019 | 0.495 ± 0.044 | 1.08 ± 0.075 | 1.03 ± 0.078 | 1.05 ± 0.054 | 1.06 ± 0.069 | 0.603 ± 0.051 | 0.312 ± 0.047 | 0.0933 ± 0.0086 | 0.0587 ± 0.016
4 | MDAMB468 BREAST | 0.993 ± 0.083 | 0.914 ± 0.024 | 0.824 ± 0.1 | 0.728 ± 0.12 | 0.578 ± 0.039 | 0.451 ± 0.053 | 0.305 ± 0.033 | 0.243 ± 0.013 | 0.971 ± 0.045 | 0.965 ± 0.12 | 0.989 ± 0.024 | 1 ± 0.078 | 0.857 ± 0.019 | 0.733 ± 0.021 | 0.255 ± 0.019 | 0.0787 ± 0.0084
5 | MFM223 BREAST | 1.25 ± 0.069 | 1.2 ± 0.073 | 1.07 ± 0.25 | 0.9232 ± 0.0025 | 0.805 ± 0.015 | 0.755 ± 0.047 | 0.734 ± 0.027 | 0.713 ± 0.072 | 1.09 ± 0.086 | 1.1 ± 0.063 | 1.04 ± 0.061 | 0.993 ± 0.079 | 0.674 ± 0.071 | 0.432 ± 0.016 | 0.127 ± 0.012 | 0.0725 ± 0.0048
6 | MG63 BONE | 1.03 ± 0.023 | 0.988 ± 0.026 | 0.989 ± 0.028 | 0.917 ± 0.017 | 0.646 ± 0.014 | 0.432 ± 0.039 | 0.285 ± 0.0053 | 0.193 ± 0.029 | 0.984 ± 0.0072 | 0.97 ± 0.04 | 0.9233 ± 0.009 | 0.833 ± 0.035 | 0.539 ± 0.021 | 0.348 ± 0.011 | 0.137 ± 0.0046 | 0.0953 ± 0.0011
7 | MHM BONE | 1.03 ± 0.047 | 1 ± 0.035 | 1.01 ± 0.048 | 1.01 ± 0.051 | 0.997 ± 0.041 | 0.981 ± 0.0079 | 0.868 ± 0.017 | 0.782 ± 0.012 | 0.999 ± 0.011 | 0.967 ± 0.013 | 0.99 ± 0.012 | 0.957 ± 0.018 | 0.888 ± 0.029 | 0.823 ± 0.013 | 0.478 ± 0.015 | 0.29 ± 0.0046
8 | NCIH441 LUNG | 1.11 ± 0.035 | 1.11 ± 0.081 | 1.01 ± 0.039 | 0.872 ± 0.037 | 0.78 ± 0.13 | 0.723 ± 0.1 | 0.584 ± 0.082 | 0.499 ± 0.083 | 1.03 ± 0.068 | 1.03 ± 0.071 | 1.06 ± 0.064 | 0.966 ± 0.058 | 0.886 ± 0.048 | 0.789 ± 0.028 | 0.425 ± 0.021 | 0.412 ± 0.015
